Data as given in US20240025906A1 (NEURON23, INC., priority 2022, published 2024).
Like-named read-outs stand apart in the source and are kept apart here.

What was measured:
[1] = biological target: T1, TYK2 JH2 (Homo sapiens, UniProt P29597); test: TYK2 JH2 binding assay (KINOMEscan KdELECT competitive binding); settings: TYK2 JH2 domain, read-out: Biochemical TYK2_DiscoverX_JH2_BND_Kd
T1 construct: purchased DiscoverX (KINOMEscan KdELECT service); host or cells: E. coli BL21-derived (T7 phage display) or HEK-293
T1 sequence (P29597 589-875 limits assumed): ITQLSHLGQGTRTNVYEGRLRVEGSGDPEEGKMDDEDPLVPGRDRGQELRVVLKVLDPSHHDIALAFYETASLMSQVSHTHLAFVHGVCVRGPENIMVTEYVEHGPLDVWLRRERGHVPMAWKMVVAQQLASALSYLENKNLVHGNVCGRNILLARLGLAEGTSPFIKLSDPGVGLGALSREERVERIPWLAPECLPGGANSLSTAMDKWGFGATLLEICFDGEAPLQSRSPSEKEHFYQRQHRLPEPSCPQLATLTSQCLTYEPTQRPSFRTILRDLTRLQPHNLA
Protocol: Assay A: TYK2 JH2 Binding Assay
Competitive binding studies using TKY2 JH2-domain fragments were conducted by DiscoverX using the KINOMEscan (KdELECT) platform. Kinase-tagged T7 phage strains were prepared in an E. coli host derived from the BL21 strain. E. coli were grown to log-phase and infected with […] and incubated with shaking at 32° C. until lysis. The lysates were centrifuged and filtered to remove cell debris. The remaining kinases were produced in HEK-293 cells and subsequently tagged with DNA for qPCR detection. Streptavidin-coated magnetic beads were treated with biotinylated small molecule ligands for 30 minutes at room temperature to generate affinity resins for kinase assays. The liganded beads were blocked with excess biotin and washed with blocking buffer (SeaBlock (Pierce), 1% BSA, 0.05% Tween 20, 1 mM DTT) to remove unbound ligand and to reduce non-specific binding. Binding reactions were assembled by combining kinases, liganded affinity beads, and test compounds in 1× binding buffer (20% SeaBlock, 0.17×PBS, 0.05% Tween 20, 6 mM DTT). Test compounds were prepared as 111× stocks in 100% DMSO. Kds were determined using an 11-point 3-fold compound dilution series with three DMSO control points. All compounds for Kd measurements are distributed by acoustic transfer (non-contact dispensing) in 100% DMSO. The compounds were then diluted directly into the assays such that the final concentration of DMSO was 0.9%. All reactions performed in polypropylene 384-well plate. Each was a final volume of 0.02 ml. The assay plates were incubated at room temperature with shaking for 1 hour and the affinity beads were washed with wash buffer (1×PBS, 0.05% Tween 20). The beads were then re-suspended in elution buffer (1×PBS, 0.05% Tween 20, 0.5 μM non-biotinylated affinity ligand) and incubated at room temperature with shaking for 30 minutes. The kinase concentration in the eluates was measured by qPCR.

[2] = system: JAK1/TYK2 pSTAT5 (Tyr694/699) in THP-1 cell line; test: IFNa-stimulated JAK1/TYK2 pSTAT5 (Tyr694/699) inhibition cellular assay, AlphaLISA; type: cell-based; settings: THP-1 cells, IFNa-stimulated, AlphaLISA (Assay B), read-out: Cellular_THP1_IFNa-pSTATS_TYK2
Protocol: Assay B: JAK1/TYK2 pSTAT5 (Tyr694/699) inhibition IC50 Cellular Assays
To evaluate the inhibition effect of compounds disclosed herein against TYK2, an IFNa-stimulated JAE1/TYK2 pSTAT5 (Tyr694/699) quantification assay was conducted in the THP-1 cell line using an AlphaLISA detection method (PerkinElmer ALSU-PST5). Compounds in DMSO were serially diluted in a 96-well plate (10 mM starting concentration, 6-fold dilutions, 8 concentrations total) prior to dispensing of 8 nL into a 384-well plate using an I.DOT non-contact liquid handler (Dispendix). Cells were collected via centrifugation at 300 ref for 5 min and resuspended in Hanks' Balanced Salt Solution (Gibco 14175-079), and 6 μl containing 2e4 cells was dispensed into each well of the 384-well plate containing test compounds or DMSO alone (final concentrations: 10000, 1666.67, 277.78, 46.30, 7.72, 1.29, 0.21 and 0.04 nM). Cells were then incubated for 1 h at 37° C. with 5% CO2 prior to the addition of 2 μL IFNa (100 ng/mL; PBL Assay Science 11175-1). Following an additional 30 min incubation at 37° C. with 5% CO2, 2 μL of 5× lysis buffer was added to each well using the I.DOT […]. Plates were sealed and incubated at RT for 10 min on a plate shaker set to 400 RPM. Cell lysates were then frozen at −80° C. before subsequent detection of pSTAT5 by AlphaLISA. At the time of the detection assay, cell lysates were thawed for 5 min at room temperature and then on a plate shaker set to 400 RPM for an additional 10 min. Following the manufacturer recommended protocol (Perkin Elmer), 5 μL of acceptor bead master mix was added to each well; plates were then resealed and incubated for 2 min at RT on a plate shaker (400 rpm) prior to an additional 2-h incubation without agitation (protected from light). Donor bead master mix, 5 uL per well, was then added to each well before 2 min of shaking (RT, 400 rpm) and 2-h incubation (RT, no shaking, protected from light). Levels of pSTAT5 protein were then measured as fluorescent signal at 615 nm with an EnVision multimode plate reader (Perkin Elmer). IC50 values were calculated in Dotmatics using the four-parameter logistic curve regression model with bottom fixed to 0 and Hill Slope fixed to −1.

[3] = DiscoverX KINOMEscan KdELECT (Assay A)

SMILES | Kd [1, 3] | IC50 ([2]; Homo sapiens) | IC50 [2] | Kd ([1]; KINOMEscan KdELECT (Assay A))
[2H]C([2H])([2H])Nc1ncc(-c2nc3ccccn3n2)c2cc(NC(=O)C3CC3F)ncc12 (racemic) [Example 564, N-(5-([1,2,4]triazolo[1,5-a]pyridin-2-yl)-8-((methyl-d3)amino)-2,7-naphthyridin-3-yl)-2-fluorocyclopropane-1-carboxamide] | ≤ 100 nM | ≤ 500 nM |  | 
[2H]C([2H])([2H])Nc1ncc(-c2nc3ccccn3n2)c2cc(NC(=O)C3CC3F)ncc12 (racemic) [Example 565, N-(5-([1,2,4]triazolo[1,5-a]pyridin-2-yl)-8-((methyl-d3)amino)-2,7-naphthyridin-3-yl)-2-fluorocyclopropane-1-carboxamide] | ≤ 100 nM |  | ≤ 500 nM | 
CNc1ncc(/C=C/c2ccc3c(c2)OCC(COC)O3)c2cc(NC(=O)C3CC3)ncc12 (racemic) [Example 789, (E)-N-(5-(2-(2-(methoxymethyl)-2,3-dihydrobenzo[b][1,4]dioxin-6-yl)vinyl)-8-(methylamino)-2,7-naphthyridin-3-yl)cyclopropanecarboxamide] |  | ≤ 500 nM |  | ≤ 100 nM
CNc1ncc(-c2nc3cc(C4CCN([C@@]5(C)COC[C@H]5O)CC4)ccc3o2)c2cc(NC(=O)C3CC3)ncc12 (single isomer, unassigned) [Example 261] | ≤ 100 nM | ≤ 500 nM |  | 
CNc1ncc(-c2nc3cc(C4CCN([C@]5(C)COC[C@@H]5O)CC4)ccc3o2)c2cc(NC(=O)C3CC3)ncc12 (single isomer, unassigned) [Example 262] | ≤ 100 nM | ≤ 500 nM |  | 
CNc1ncc(-c2nc3cc(N4CCO[C@H](C(C)(F)F)C4)ccc3o2)c2cc(NC(=O)C3CC3)ncc12 (single isomer, unassigned) [Example 331] | ≤ 100 nM | ≤ 500 nM |  | 
CNc1ncc(-c2nc3cc(N4CCO[C@@H](C(C)(F)F)C4)ccc3o2)c2cc(NC(=O)C3CC3)ncc12 (single isomer, unassigned) [Example 332] | ≤ 100 nM | ≤ 500 nM |  | 
CNc1ncc(-c2nc3cc(OC)ccc3o2)c2cc(NC(=O)[C@@H]3C[C@@H]3C(F)F)ncc12 (single isomer, unassigned) [Example 394] | ≤ 100 nM | ≤ 500 nM |  | 
CNc1ncc(-c2nc3cc(OC)ccc3o2)c2cc(NC(=O)[C@@H]3C[C@@H]3C(F)(F)F)ncc12 (single isomer, unassigned) [Example 397] | ≤ 100 nM | ≤ 500 nM |  | 
CNc1ncc(-c2nc3cc(OC)ccc3o2)c2cc(NC(=O)[C@H]3C[C@H]3C(F)(F)F)ncc12 (single isomer, unassigned) [Example 398] | ≤ 100 nM | > 500 nM |  | 
CNc1ncc(-c2nc3cc(OC)ccc3o2)c2cc(NC(=O)[C@@H]3C[C@@H]3CF)ncc12 (single isomer, unassigned) [Example 400] | ≤ 100 nM | ≤ 500 nM |  | 
CNc1ncc(-c2nc3cc(OC)ccc3o2)c2cc(NC(=O)[C@H]3C[C@H]3CF)ncc12 (single isomer, unassigned) [Example 401] | ≤ 100 nM | ≤ 500 nM |  | 
CNc1ncc(-c2nc3cc(N4CCO[C@@H](C)C4)ccc3o2)c2cc(NC(=O)[C@H]3C[C@H]3C(F)F)ncc12 (single isomer, unassigned) [Example 414] | ≤ 100 nM | ≤ 500 nM |  | 
CNc1ncc(-c2nc3cc(N4CCO[C@@H](C)C4)ccc3o2)c2cc(NC(=O)[C@@H]3C[C@@H]3C(F)F)ncc12 (single isomer, unassigned) [Example 415] | ≤ 100 nM | ≤ 500 nM |  | 
[2H]C([2H])([2H])Nc1ncc(-c2nc3cc(OC)ccc3o2)c2cc(NC(=O)[C@@H]3C[C@@H]3C)ncc12 (single isomer, unassigned) [Example 437] | ≤ 100 nM | ≤ 500 nM |  | 
[2H]C([2H])([2H])Nc1ncc(-c2nc3cc(OC)ccc3o2)c2cc(NC(=O)[C@H]3C[C@H]3C)ncc12 (single isomer, unassigned) [Example 438] | ≤ 100 nM |  | ≤ 500 nM | 
CNc1ncc(-c2nc3cc(N4CCOCC4)ccc3o2)c2cc(NC(=O)[C@H]3C[C@H]3CF)ncc12 (single isomer, unassigned) [Example 451] | ≤ 100 nM | ≤ 500 nM |  | 
CNc1ncc(-c2nc3cc(N4CCOCC4)ccc3o2)c2cc(NC(=O)[C@@H]3C[C@@H]3CF)ncc12 (single isomer, unassigned) [Example 452] | ≤ 100 nM | ≤ 500 nM |  | 
CNc1ncc(-c2nc3cc(OC)ccc3o2)c2cc(NC(=O)[C@H]3C[C@H]3CO)ncc12 (single isomer, unassigned) [Example 467] | ≤ 100 nM | ≤ 500 nM |  | 
CNc1ncc(-c2nc3cc(OC)ccc3o2)c2cc(NC(=O)[C@@H]3C[C@@H]3CO)ncc12 (single isomer, unassigned) [Example 468] | ≤ 100 nM | ≤ 500 nM |  | 
CC[C@@H]1C[C@H]1C(=O)Nc1cc2c(-c3nc4ccc(OC)cn4n3)cnc(NC)c2cn1 (single isomer, unassigned) [Example 522] | ≤ 100 nM | ≤ 500 nM |  | 
CNc1ncc(-c2nc3ccc(N4CCOCC4)cn3n2)c2cc(NC(=O)[C@@H](C)F)ncc12 (single isomer, unassigned) [Example 532] | ≤ 100 nM | ≤ 500 nM |  | 
CNc1ncc(-c2nc3ccc(N4CCOCC4)cn3n2)c2cc(NC(=O)[C@H](C)F)ncc12 (single isomer, unassigned) [Example 533] | ≤ 100 nM | > 500 nM |  | 
CNc1ncc(-c2nc3ccc(N4CCOCC4)cn3n2)c2cc(NC(=O)[C@H]3C[C@H]3C(F)F)ncc12 (single isomer, unassigned) [Example 534] | ≤ 100 nM | ≤ 500 nM |  | 
CNc1ncc(-c2nc3ccc(N4CCOCC4)cn3n2)c2cc(NC(=O)[C@@H]3C[C@@H]3C(F)F)ncc12 (single isomer, unassigned) [Example 535] | ≤ 100 nM | ≤ 500 nM |  | 
CNc1ncc(-c2nc3ccc(N4CCO[C@@H](C)C4)cn3n2)c2cc(NC(=O)[C@H]3C[C@H]3C(F)(F)F)ncc12 (single isomer, unassigned) [Example 541] | ≤ 100 nM | ≤ 500 nM |  | 
CNc1ncc(-c2nc3ccc(N4CCO[C@@H](C)C4)cn3n2)c2cc(NC(=O)[C@@H]3C[C@@H]3C(F)(F)F)ncc12 (single isomer, unassigned) [Example 542] | ≤ 100 nM | ≤ 500 nM |  | 
[2H]C([2H])([2H])Nc1ncc(-c2nc3ccc(N4CCO[C@@H](C)C4)cn3n2)c2cc(NC(=O)[C@H]3C[C@H]3C(F)F)ncc12 (single isomer, unassigned) [Example 574] | ≤ 100 nM | ≤ 500 nM |  | 
CC[C@H]1C[C@@H]1C(=O)Nc1cc2c(-c3nc4ccc(N5CCOCC5)cn4n3)cnc(NC)c2cn1 (single isomer, unassigned) [Example 585] | ≤ 100 nM | ≤ 500 nM |  | 
